According to ChEMBL document CHEMBL4765261, “Design, synthesis, and biological evaluation of heterotetracyclic quinolinone derivatives as anticancer agents targeting topoisomerases” (Eur J Med Chem, 2020):
One block for each compound: values may come before it. Activity calls are given as the source filed them. The calls are words filed in the database; no cut-off is given here.

Assays:
[1] = Cytotoxicity against human MDA-MB-231 cells assessed as reduction in cell viability at 10 uM after 72 hrs by MTT assay relative to control; format: cell-based; settings: read-out: INH
HCT-116 = assay: Anticancer activity against human HCT-116 cells assessed as inhibition of cell proliferation measured after 72 hrs by MTT assay; format: functional, cell-based; settings: HCT-116, 72 h
MDA-MB-468 = assay: Anticancer activity against human MDA-MB-468 cells assessed as inhibition of cell proliferation measured after 72 hrs by MTT assay; format: functional, cell-based; settings: MDA-MB-468, 72 h
[2] = target: T1, DNA topoisomerase 1 (Homo sapiens) (UniProt P11387); assay: Inhibition of human recombinant topoisomerase 1 expressed in baculovirus-infected insect cells assessed as inhibition of DNA relaxation at 1 uM incubated for 30 mins by ethidium bromide staining based agarose gel electrophoresis method
T1 sequence (whole entry): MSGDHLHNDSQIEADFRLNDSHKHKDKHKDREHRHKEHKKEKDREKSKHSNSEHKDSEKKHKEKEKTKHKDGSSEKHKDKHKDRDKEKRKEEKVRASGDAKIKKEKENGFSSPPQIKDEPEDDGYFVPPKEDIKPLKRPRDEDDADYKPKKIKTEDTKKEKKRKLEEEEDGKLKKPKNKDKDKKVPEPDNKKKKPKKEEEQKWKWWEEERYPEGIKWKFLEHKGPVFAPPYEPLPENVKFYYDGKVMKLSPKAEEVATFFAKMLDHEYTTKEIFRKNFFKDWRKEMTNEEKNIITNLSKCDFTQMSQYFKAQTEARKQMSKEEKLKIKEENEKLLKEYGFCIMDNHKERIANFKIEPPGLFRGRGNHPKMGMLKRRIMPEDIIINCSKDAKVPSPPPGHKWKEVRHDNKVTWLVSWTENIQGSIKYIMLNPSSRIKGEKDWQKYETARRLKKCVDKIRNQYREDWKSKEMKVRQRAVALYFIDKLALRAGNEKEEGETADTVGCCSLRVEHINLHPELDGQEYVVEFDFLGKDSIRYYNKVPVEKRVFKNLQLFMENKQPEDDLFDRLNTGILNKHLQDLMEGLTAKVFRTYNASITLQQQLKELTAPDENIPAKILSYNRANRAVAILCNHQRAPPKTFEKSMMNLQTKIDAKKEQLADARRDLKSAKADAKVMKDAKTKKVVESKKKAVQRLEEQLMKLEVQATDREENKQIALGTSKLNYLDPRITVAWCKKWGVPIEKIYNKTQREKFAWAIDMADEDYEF

MDA-MB-231 [3] = assay: Anticancer activity against human MDA-MB-231 cells assessed as inhibition of cell proliferation measured after 72 hrs by MTT assay; format: functional, cell-based; settings: MDA-MB-231, 72 h
[4] = target: DNA topoisomerase 2-alpha (Homo sapiens) (UniProt P11388); assay: Inhibition of human recombinant topoisomerase 2alpha expressed in baculovirus-infected insect cells assessed as inhibition of DNA relaxation at 3 uM incubated for 45 mins by ethidium bromide staining based agarose gel electrophoresis method
MCF7 = assay: Anticancer activity against human MCF7 cells assessed as inhibition of cell proliferation measured after 72 hrs by MTT assay; format: functional, cell-based; settings: MCF7, 72 h
NCI-H1299 = assay: Anticancer activity against human H1299 cells assessed as inhibition of cell proliferation measured after 72 hrs by MTT assay; format: functional, cell-based; settings: NCI-H1299, 72 h
[5] = target: T1, DNA topoisomerase 1 (Homo sapiens); assay: Inhibition of human recombinant topoisomerase 1 expressed in baculovirus-infected insect cells assessed as inhibition of DNA relaxation at 3 uM incubated for 30 mins by ethidium bromide staining based agarose gel electrophoresis method
[6] = target: T1, DNA topoisomerase 1 (Homo sapiens); assay: Inhibition of human recombinant topoisomerase 1 expressed in baculovirus-infected insect cells assessed as inhibition of DNA relaxation at 10 uM incubated for 30 mins by ethidium bromide staining based agarose gel electrophoresis method
MDA-MB-231 [7] = assay: Induction of apoptosis in human MDA-MB-231 cells assessed as increase in cleaved caspase-8 level incubated for 24 hrs by Western blot analysis; format: functional, cell-based
MDA-MB-231 [8] = assay: Cell cycle arrest in human MDA-MB-231 cells assessed as accumulation at sub-G1 phase at 4 uM after 24 hrs by propidium iodide staining based flow cytometric analysis (reference value: 0.72%); format: functional
MDA-MB-231 [9] = assay: Induction of cell cycle arrest in human […] assessed as increase in accumulation of cells at sub-G1 phase at 2.5 uM incubated for 24 hrs by propidium iodide based flow cytometry analysis; format: functional
[10] = target: DNA topoisomerase 2-alpha (Homo sapiens) (UniProt P11388); assay: Poison activity at human recombinant topoisomerase II alpha in human MDA-MB-231 cells assessed as increase in chromatin incubated for 30 mins by Western blot analysis; format: cell-based
MDA-MB-231 [11] = assay: Induction of DNA damage in human MDA-MB-231 cells assessed as phosphorylation of Ser 139 of histone H2AX measured after 24 hrs by western blotting analysis; format: functional, cell-based
MDA-MB-231 [12] = assay: Induction of apoptosis in human MDA-MB-231 cells assessed as increase in cleaved caspase-9 level incubated for 24 hrs by Western blot analysis; format: functional, cell-based
[13] = target: T1, DNA topoisomerase 1 (Homo sapiens); assay: Poison activity at human recombinant topoisomerase I assessed as accumulation of supercoiled DNA at 10 uM measured after 30 mins by ethidium bromide staining based agarose gel electrophoresis
MDA-MB-231 [14] = assay: Cell cycle arrest in human MDA-MB-231 assessed as increase accumulation at G2/M phase incubated for 12 hrs by propidium iodide staining based flow cytometric analysis relative to control; format: functional
MCF-10A [15] = assay: Induction of cell cycle arrest in human MCF-10A cells assessed as increase in accumulation of cells at sub-G1 phase at 2.5 uM incubated for 24 hrs by propidium iodide based flow cytometry analysis
[16] = target: T1, DNA topoisomerase 1 (Homo sapiens); assay: Poison activity at human recombinant topoisomerase I assessed as accumulation of supercoiled DNA by measuring restricted DNA mobility at 30 uM measured after 30 mins by ethidium bromide staining based agarose gel electrophoresis
MCF-10A [17] = assay: Antiproliferative activity against human MCF-10A cells at 2.5 uM after 72 hrs by MTT assay relative to control; format: cell-based
[18] = target: DNA topoisomerase 2-alpha (Homo sapiens) (UniProt P11388); assay: Inhibition of human recombinant topoisomerase 2alpha expressed in baculovirus-infected insect cells assessed as inhibition of DNA relaxation at 1 uM incubated for 45 mins by ethidium bromide staining based agarose gel electrophoresis method
MDA-MB-231 [19] = assay: Cell cycle arrest in human MDA-MB-231 cells assessed as accumulation at sub-G1 phase at 2 uM after 24 hrs by propidium iodide staining-based flow cytometric analysis (reference value: 0.72%); format: functional
MDA-MB-231 [20] = assay: Antiproliferative activity against human […] at 2.5 uM after 72 hrs by MTT assay relative to control; format: functional, cell-based
[21] = target: T1, DNA topoisomerase 1 (Homo sapiens); assay: Poison activity at human recombinant topoisomerase I in human MDA-MB-231 cells assessed as increase in chromatin incubated for 30 mins by Western blot analysis; format: cell-based
MDA-MB-231 [22] = assay: Cell cycle arrest in human MDA-MB-231 cells assessed as accumulation at sub-G1 phase at 10 uM after 24 hrs by propidium iodide staining-based flow cytometric analysis (reference value: 0.72%); format: functional
MDA-MB-231 [23] = assay: Cell cycle arrest in human MDA-MB-231 cells assessed as accumulation at sub-G1 phase at 20 uM after 24 hrs by propidium iodide staining based flow cytometric analysis (reference value: 0.72%); format: functional

DNA topoisomerase 2-alpha (Homo sapiens), sequence (P11388 whole entry): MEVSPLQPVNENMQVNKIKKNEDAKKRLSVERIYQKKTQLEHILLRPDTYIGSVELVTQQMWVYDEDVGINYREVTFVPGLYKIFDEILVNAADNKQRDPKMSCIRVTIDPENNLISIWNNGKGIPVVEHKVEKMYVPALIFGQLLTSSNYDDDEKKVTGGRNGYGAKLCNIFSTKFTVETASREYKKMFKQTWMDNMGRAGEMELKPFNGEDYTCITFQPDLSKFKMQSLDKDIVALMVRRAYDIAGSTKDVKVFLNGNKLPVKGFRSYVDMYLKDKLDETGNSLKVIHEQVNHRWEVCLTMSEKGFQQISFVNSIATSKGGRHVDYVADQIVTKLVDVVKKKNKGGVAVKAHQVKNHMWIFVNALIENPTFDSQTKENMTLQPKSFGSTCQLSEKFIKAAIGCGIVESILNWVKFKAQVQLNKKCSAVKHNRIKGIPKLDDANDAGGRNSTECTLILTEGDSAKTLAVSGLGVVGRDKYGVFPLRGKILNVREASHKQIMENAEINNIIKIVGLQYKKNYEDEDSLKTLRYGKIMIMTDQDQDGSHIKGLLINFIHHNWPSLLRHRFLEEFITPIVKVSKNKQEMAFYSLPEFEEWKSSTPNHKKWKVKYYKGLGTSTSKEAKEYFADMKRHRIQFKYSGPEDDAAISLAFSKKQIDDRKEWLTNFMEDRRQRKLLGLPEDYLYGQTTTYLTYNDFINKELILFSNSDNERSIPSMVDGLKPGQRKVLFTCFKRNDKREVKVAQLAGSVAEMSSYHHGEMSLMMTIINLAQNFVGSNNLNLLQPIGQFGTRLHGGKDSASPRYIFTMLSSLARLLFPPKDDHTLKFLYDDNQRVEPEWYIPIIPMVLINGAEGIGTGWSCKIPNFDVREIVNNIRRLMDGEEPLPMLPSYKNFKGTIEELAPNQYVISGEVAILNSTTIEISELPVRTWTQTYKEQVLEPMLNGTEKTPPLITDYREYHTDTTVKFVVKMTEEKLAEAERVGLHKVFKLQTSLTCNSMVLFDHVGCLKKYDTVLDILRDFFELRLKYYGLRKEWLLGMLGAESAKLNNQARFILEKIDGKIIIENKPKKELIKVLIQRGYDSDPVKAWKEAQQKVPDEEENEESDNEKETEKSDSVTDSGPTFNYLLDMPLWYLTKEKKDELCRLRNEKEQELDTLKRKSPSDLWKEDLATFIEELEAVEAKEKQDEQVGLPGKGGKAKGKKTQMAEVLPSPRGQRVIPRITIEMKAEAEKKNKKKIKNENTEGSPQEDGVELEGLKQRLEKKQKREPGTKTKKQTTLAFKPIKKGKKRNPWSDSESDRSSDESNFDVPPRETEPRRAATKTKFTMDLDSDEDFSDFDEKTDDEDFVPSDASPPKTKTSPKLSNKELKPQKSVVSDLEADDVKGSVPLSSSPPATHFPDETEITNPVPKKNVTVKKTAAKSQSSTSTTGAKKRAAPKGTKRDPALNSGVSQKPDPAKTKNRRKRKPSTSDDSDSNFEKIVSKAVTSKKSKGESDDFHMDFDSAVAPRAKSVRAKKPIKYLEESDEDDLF

SMILES: CCNc1nc2ccccc2c2c(=O)c3cccc(OC)c3sc12
cytotoxicity at 72 h, 10 µM [1]: 21%

SMILES: CCNc1nc2ccccc2c2c(=O)c3cc(F)cc(Cl)c3sc12
cytotoxicity at 72 h, 10 µM [1]: 21%

SMILES: COc1cccc2c(=O)c3c(sc12)c(NCc1ccccc1)nc1ccccc13
cytotoxicity at 72 h, 10 µM [1]: 21%

IC50 (HCT-116): 3.05 µM
IC50 (MDA-MB-468): 1.24 µM
inhibition [2]: Active
IC50 (MDA-MB-231 [3]): 2.9 µM
inhibition [4]: Active
IC50 (MCF7): 3.98 µM
IC50 (NCI-H1299): 3.02 µM
inhibition of DNA relaxation (active/inactive) [5]: Active
inhibition [6]: 100%
SMILES: NCCCNc1nc2ccccc2c2c(=O)c3cc(F)ccc3sc12
cytotoxicity at 72 h, 10 µM [1]: > 95%

IC50 (HCT-116): > 5 µM
IC50 (MDA-MB-468): 3.04 µM
inhibition [2]: Active
IC50 (MDA-MB-231 [3]): 4.5 µM
inhibition [4]: Active
IC50 (MCF7): > 5 µM
IC50 (NCI-H1299): > 5 µM
inhibition of DNA relaxation (active/inactive) [5]: Active
inhibition [6]: 100%
SMILES: COc1ccc2sc3c(NCCCN)nc4ccccc4c3c(=O)c2c1
cytotoxicity at 72 h, 10 µM [1]: > 95%

SMILES: O=c1c2cc(F)ccc2sc2c(NCc3cccnc3)nc3ccccc3c12
cytotoxicity at 72 h, 10 µM [1]: 21%

SMILES: CCCNc1nc2ccccc2c2c(=O)c3c(Cl)cccc3sc12
cytotoxicity at 72 h, 10 µM [1]: < 20%

IC50 (HCT-116): 3.54 µM
IC50 (MDA-MB-468): 1.09 µM
inhibition [2]: Active
IC50 (MDA-MB-231 [3]): 3.39 µM
inhibition [4]: Active
IC50 (MCF7): 4.36 µM
IC50 (NCI-H1299): 4.73 µM
inhibition of DNA relaxation (active/inactive) [5]: Active
SMILES: NCCCNc1nc2ccccc2c2c(=O)c3cc(Cl)ccc3sc12
cytotoxicity at 72 h, 10 µM [1]: > 95%

SMILES: O=c1c2cccc(F)c2sc2c(NCc3ccccc3)nc3ccccc3c12
cytotoxicity at 72 h, 10 µM [1]: < 20%

IC50 (HCT-116): 0.53 µM
IC50 (MDA-MB-468): 0.22 µM
inhibition [2]: Active
IC50 (MDA-MB-231 [3]): 1.14 µM
inhibition [4]: Active
IC50 (MCF7): 0.8 µM
Activity (MCF-10A [15]): 1.6%
IC50 (NCI-H1299): 0.53 µM
inhibition of DNA relaxation (active/inactive) [5]: Active
inhibition [18]: 100%
inhibition [6]: 100%
SMILES: NCCNc1nc2ccccc2c2c(=O)c3cc(F)cc(Cl)c3sc12
Activity (MDA-MB-231 [7]): Active
Activity (MDA-MB-231 [8]): 39.4%
cytotoxicity at 72 h, 10 µM [1]: > 95%
Activity (MDA-MB-231 [9]): 70.2%
Activity [10]: Active
Activity (MDA-MB-231 [11]): Active
Activity (MDA-MB-231 [12]): Active
Activity [13]: Active
Activity (MDA-MB-231 [14]): Active
Activity [16]: Active
Activity (MCF-10A [17]): Non-Toxic
Activity (MDA-MB-231 [19]): 3.6%
Activity (MDA-MB-231 [20]): Active
Activity [21]: Active

SMILES: CCCNc1nc2ccccc2c2c(=O)c3cc(Cl)ccc3sc12
cytotoxicity at 72 h, 10 µM [1]: 21%

SMILES: Cc1ccc2sc3c(NCc4ccccc4)nc4ccccc4c3c(=O)c2c1
cytotoxicity at 72 h, 10 µM [1]: 21%

IC50 (HCT-116): 4.22 µM
IC50 (MDA-MB-468): 2.89 µM
inhibition [2]: Active
IC50 (MDA-MB-231 [3]): 3.69 µM
inhibition [4]: Active
IC50 (MCF7): > 5 µM
IC50 (NCI-H1299): > 5 µM
inhibition of DNA relaxation (active/inactive) [5]: Active
inhibition [6]: 100%
SMILES: Cc1ccc2sc3c(NCCCN)nc4ccccc4c3c(=O)c2c1
cytotoxicity at 72 h, 10 µM [1]: > 95%

SMILES: O=C(Nc1nc2ccccc2c2c(=O)c3cc(Cl)ccc3sc12)c1ccccn1
cytotoxicity at 72 h, 10 µM [1]: < 20%

SMILES: CCNc1nc2ccccc2c2c(=O)c3cc(C)ccc3sc12
cytotoxicity at 72 h, 10 µM [1]: 21%

IC50 (HCT-116): 2.51 µM
IC50 (MDA-MB-468): 0.27 µM
inhibition [2]: Active
IC50 (MDA-MB-231 [3]): 2.19 µM
inhibition [4]: Active
IC50 (MCF7): 4.49 µM
IC50 (NCI-H1299): 3.69 µM
inhibition of DNA relaxation (active/inactive) [5]: Active
inhibition [18]: 100%
inhibition [6]: 100%
SMILES: NCCCNc1nc2ccccc2c2c(=O)c3cccc(Cl)c3sc12
cytotoxicity at 72 h, 10 µM [1]: > 95%
Activity (MDA-MB-231 [22]): 9.8%
Activity (MDA-MB-231 [23]): 35.7%

SMILES: O=c1c2cc(F)ccc2sc2c(NCc3ccccc3)nc3ccccc3c12
cytotoxicity at 72 h, 10 µM [1]: 21%

SMILES: CCCNc1nc2ccccc2c2c(=O)c3ccc(Cl)cc3sc12
cytotoxicity at 72 h, 10 µM [1]: < 20%

Activity [6]: Active
SMILES: CCCNc1nc2ccccc2c2c(=O)c3cc(OC)ccc3sc12
cytotoxicity at 72 h, 10 µM [1]: < 20%

SMILES: CCNc1nc2ccccc2c2c(=O)c3cccc(F)c3sc12
cytotoxicity at 72 h, 10 µM [1]: < 20%

SMILES: CCCNc1nc2ccccc2c2c(=O)c3cc(F)ccc3sc12
cytotoxicity at 72 h, 10 µM [1]: 21%

SMILES: CCCNc1nc2ccccc2c2c(=O)c3cccc(Cl)c3sc12
cytotoxicity at 72 h, 10 µM [1]: < 20%

SMILES: COc1ccc(CNc2nc3ccccc3c3c(=O)c4cc(Cl)ccc4sc23)cc1
cytotoxicity at 72 h, 10 µM [1]: 21%
